Measured values published in ChEMBL document CHEMBL3596159, “Beyond substrate analogues: new inhibitor chemotypes for glycosyltransferases” (Medchemcomm, 2014).
*1 amine or outer side, *2 acyl side, *3 side chain or, on linkers, in order; H or OH if unused. Where a SMILES comes first, the peptide text is derived from it. Bridges are numbered along the chain shown (N, C = ends). [ ]: non-standard residue; d: D form. The star is where a group is joined. Orn(4R-OH,5R-OH) = O=C([C@H](C[C@@H](O)[C@@H](O)N[*:3])N[*:1])[*:2]; Tetradecanoyl(10R,12S-Me2) = CC[C@H](C)C[C@H](C)CCCCCCCCC(=O)*; hTyr(3S-OH,4S-OH) = N[C@H](C(=O)O)[C@H](O)[C@@H](O)c1ccc(O)cc1; Gln(3R-OH) = NC(=O)C[C@@H](O)[C@H](N)C(=O)O; Pro(3S-OH) = O=C(O)[C@H]1NCC[C@@H]1O; Hyp = O=C(O)[C@@H]1C[C@@H](O)CN1

Tested on: not listed separately
Assay: Inhibition of MraY (unknown origin)
Details: not given

Structure (SMILES)	IC50
NC[C@H]1O[C@@H](O[C@H](c2cn(CCCOc3ccc(C(=O)c4ccccc4)cc3)nn2)[C@H]2O[C@@H](n3ccc(=O)[nH]c3=O)[C@H](O)[C@@H]2O)[C@H](O)[C@@H]1O	100 µM
NC[C@H]1O[C@@H](O[C@H](c2cn(Cc3ccc(COc4ccc(C(=O)c5ccccc5)cc4)cc3)nn2)[C@H]2O[C@@H](n3ccc(=O)[nH]c3=O)[C@H](O)[C@@H]2O)[C@H](O)[C@@H]1O	50 µM
NC[C@H]1O[C@@H](O[C@H](c2cn(CCCCCCCCCCOc3ccc(C(=O)c4ccccc4)cc3)nn2)[C@H]2O[C@@H](n3ccc(=O)[nH]c3=O)[C@H](O)[C@@H]2O)[C@H](O)[C@@H]1O	125 µM
NC[C@H]1O[C@@H](O[C@H](c2cn(CCCCCOc3ccc(C(=O)c4ccccc4)cc3)nn2)[C@H]2O[C@@H](n3ccc(=O)[nH]c3=O)[C@H](O)[C@@H]2O)[C@H](O)[C@@H]1O	100 µM

Biological target: T1, UDP-N-acetylglucosamine--peptide N-acetylglucosaminyltransferase 110 kDa subunit (Homo sapiens) (UniProt O15294)
T1 sequence (whole entry): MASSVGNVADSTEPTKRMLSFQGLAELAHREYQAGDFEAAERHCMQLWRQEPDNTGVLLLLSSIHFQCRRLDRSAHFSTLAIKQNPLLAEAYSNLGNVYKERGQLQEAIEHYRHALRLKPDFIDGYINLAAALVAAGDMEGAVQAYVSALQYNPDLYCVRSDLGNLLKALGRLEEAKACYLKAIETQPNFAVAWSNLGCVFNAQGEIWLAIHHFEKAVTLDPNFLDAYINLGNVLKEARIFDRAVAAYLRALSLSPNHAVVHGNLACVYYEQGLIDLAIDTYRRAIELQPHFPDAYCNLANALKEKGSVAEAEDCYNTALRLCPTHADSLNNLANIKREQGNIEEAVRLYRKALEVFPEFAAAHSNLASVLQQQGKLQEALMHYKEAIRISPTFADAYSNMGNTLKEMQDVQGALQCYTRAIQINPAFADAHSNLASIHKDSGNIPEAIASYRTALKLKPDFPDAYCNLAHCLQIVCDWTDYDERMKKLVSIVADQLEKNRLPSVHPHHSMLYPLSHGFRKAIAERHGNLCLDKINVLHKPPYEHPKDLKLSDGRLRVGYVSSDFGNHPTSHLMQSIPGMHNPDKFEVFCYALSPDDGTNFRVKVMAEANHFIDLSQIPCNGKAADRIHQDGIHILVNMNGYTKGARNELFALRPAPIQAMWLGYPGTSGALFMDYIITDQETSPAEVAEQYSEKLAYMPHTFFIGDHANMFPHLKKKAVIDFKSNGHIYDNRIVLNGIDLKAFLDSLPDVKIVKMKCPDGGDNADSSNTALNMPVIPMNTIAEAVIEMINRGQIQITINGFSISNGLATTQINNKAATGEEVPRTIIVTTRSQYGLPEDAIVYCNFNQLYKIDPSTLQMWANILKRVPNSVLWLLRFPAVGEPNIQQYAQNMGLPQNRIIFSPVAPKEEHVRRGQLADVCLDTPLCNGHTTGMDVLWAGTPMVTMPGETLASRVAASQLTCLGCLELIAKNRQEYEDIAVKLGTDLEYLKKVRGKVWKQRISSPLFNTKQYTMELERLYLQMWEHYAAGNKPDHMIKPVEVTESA
Assay: Inhibition of OGT (unknown origin)
Details: concentration not given here

Structure (SMILES)	inhibition
O=C(/C=C/c1cccs1)Nc1scc(-c2ccccc2)c1C(=O)O	> 30%
O=C(O)c1ccc2scnc2c1	> 30%
CCOC(=O)C(C(C)C)C(N)Cc1ccc(F)cc1 (configuration not stated)	> 30%

Biological target: T2, Ceramide glucosyltransferase (Homo sapiens) (UniProt Q16739)
T2 sequence (whole entry): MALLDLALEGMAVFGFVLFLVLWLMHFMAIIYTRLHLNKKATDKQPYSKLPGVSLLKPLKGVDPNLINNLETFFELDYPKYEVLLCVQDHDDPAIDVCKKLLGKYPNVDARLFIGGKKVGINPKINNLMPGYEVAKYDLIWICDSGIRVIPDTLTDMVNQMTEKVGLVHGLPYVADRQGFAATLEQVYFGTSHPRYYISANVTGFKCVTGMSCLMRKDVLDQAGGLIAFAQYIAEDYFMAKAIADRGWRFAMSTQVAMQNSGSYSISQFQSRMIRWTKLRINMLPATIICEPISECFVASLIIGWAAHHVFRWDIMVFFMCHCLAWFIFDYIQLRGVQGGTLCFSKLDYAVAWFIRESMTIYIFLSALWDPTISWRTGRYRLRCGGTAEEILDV
Assay: Inhibition of glucosylceramide synthase (unknown origin) at 5 uM
Details: not given

Structure (SMILES)	inhibition
CCCCCCCCCC(=O)N[C@H](CN1CCOCC1)[C@H](O)c1ccccc1	16%
CCCCCCCCCCCCC/C=C/[C@H](O)[C@@H](CN1CCOCC1)NC(=O)CCCCCCCCCCCCCCC	5%
CCCCCCCCCCCCCCCC(=O)N[C@H](CN1CCCC1)[C@H](O)c1ccccc1	50%
CCCCCCCCCCCCC/C=C/[C@H](O)[C@H](CN1CCOCC1)NC(=O)CCCCCCCCCCCCCCC	5%
CCCCCCCCCCCCC/C=C/[C@@H](O)[C@@H](CN1CCOCC1)NC(=O)CCCCCCCCCCCCCCC	73%
CCCCCCCCCCCCC/C=C/[C@@H](O)[C@H](CN1CCOCC1)NC(=O)CCCCCCCCCCCCCCC	5%
CCCCCCCCCCCCCCCC(=O)N[C@H](CN1CCOCC1)[C@H](O)c1ccccc1	32%
CCCCCCCCCCCCC/C=C/[C@@H](O)[C@@H](CN1CCCC1)NC(=O)CCCCCCCCCCCCCCC	87%

Biological target: T3, Phospho-N-acetylmuramoyl-pentapeptide-transferase/UDP-N-acetylglucosamine--N-acetylmuramyl-(pentapeptide) pyrophosphoryl-undecaprenol N-acetylglucosamine transf (Escherichia coli K-12, UniProt P0A6W3+P17443)
T3 sequence (P0A6W3 whole entry): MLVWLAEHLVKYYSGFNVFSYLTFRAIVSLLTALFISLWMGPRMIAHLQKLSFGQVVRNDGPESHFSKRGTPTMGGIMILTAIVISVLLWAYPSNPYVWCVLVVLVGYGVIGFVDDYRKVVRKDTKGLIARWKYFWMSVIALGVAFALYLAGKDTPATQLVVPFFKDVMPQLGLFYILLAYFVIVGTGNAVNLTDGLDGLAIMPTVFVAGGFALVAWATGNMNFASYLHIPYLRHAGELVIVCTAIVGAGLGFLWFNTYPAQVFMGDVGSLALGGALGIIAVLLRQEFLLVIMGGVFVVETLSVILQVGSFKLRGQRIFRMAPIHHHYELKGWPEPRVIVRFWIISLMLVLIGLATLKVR
T3 sequence (P17443 whole entry): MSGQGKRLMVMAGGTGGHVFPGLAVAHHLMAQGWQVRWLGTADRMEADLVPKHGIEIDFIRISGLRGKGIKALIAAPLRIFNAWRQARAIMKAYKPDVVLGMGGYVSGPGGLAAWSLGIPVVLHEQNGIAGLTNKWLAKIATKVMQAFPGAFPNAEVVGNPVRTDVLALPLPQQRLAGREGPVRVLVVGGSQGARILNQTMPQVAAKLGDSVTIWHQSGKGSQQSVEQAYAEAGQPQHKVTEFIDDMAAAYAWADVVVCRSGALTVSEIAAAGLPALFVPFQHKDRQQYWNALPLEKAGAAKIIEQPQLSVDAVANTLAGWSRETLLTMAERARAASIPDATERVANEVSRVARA
Assay: Inhibition of Escherichia coli MraY/MurG
Assay type: protein assay
Details: not given

Structure (SMILES)	IC50
O=C1OC2(c3cc(I)c(O)cc3Oc3cc(O)c(I)cc32)c2ccccc21	166 µM
CCOC(=O)c1ccccc1-c1c2cc(Br)c(=O)c(Br)c-2oc2c(Br)c(O)c(Br)cc12	18.4 µM
COC1=C(O)c2c(O)cc(C)c3c(O)cc(O)c(c23)C1=O	54 µM

Biological target: T4, CMP-N-acetylneuraminate-beta-galactosamide-alpha-2,3-sialyltransferase 1 (Homo sapiens, UniProt Q11201)
T4 sequence (Q11201 whole entry): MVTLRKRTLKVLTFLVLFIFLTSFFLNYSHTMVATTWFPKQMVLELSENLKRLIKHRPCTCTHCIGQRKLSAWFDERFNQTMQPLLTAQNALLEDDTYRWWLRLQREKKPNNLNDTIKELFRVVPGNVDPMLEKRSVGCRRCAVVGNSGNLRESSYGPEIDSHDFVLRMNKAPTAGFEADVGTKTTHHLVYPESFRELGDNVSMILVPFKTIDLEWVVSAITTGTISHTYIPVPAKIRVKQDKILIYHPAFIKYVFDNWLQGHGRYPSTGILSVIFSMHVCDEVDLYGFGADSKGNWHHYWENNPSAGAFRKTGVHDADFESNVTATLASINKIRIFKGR
Assay: Inhibition of ST3Gal 1 (unknown origin)
Details: not given

Structure (SMILES)	IC50	Ki
C[C@H](CCC(=O)O)[C@H]1CC[C@H]2[C@@H]3CC[C@@H]4C[C@H](O)CC[C@]4(C)[C@H]3CC[C@]12C [LITHOCHOLIC ACID]	21 µM	–
C[C@H](CCCn1cc(CCCC(=O)O)nn1)[C@H]1CC[C@H]2[C@@H]3CC[C@@H]4C[C@H](O)CC[C@]4(C)[C@H]3CC[C@]12C	5 µM	2.2 µM

Tested on: Trypanosoma brucei
Assay: Inhibition of Trypanosoma brucei DPMS at 1 mM
Details: not given

Structure (SMILES)	inhibition
O=C(O)CN1C(=O)/C(=C\c2ccc(OCc3ccccc3)c(OCc3ccccc3)c2)SC1=S	80%
O=C(O)CN1C(=O)/C(=C\c2cccc(OCc3ccccc3)c2)SC1=S	77%
O=C(O)CN1C(=O)/C(=C\c2ccccc2O)SC1=S	77%

Biological target: T5, UDP-N-acetylglucosamine--N-acetylmuramyl-(pentapeptide) pyrophosphoryl-undecaprenol N-acetylglucosamine transferase (Escherichia coli (strain K12)) (UniProt P17443)
T5 sequence (whole entry): T3 sequence (P17443 whole entry)
Assay: Inhibition of Escherichia coli MurG at 2.5 microg/ml
Details: not given

Structure (SMILES)	inhibition
COc1c(N/C=C2\C(=O)N(c3ccccc3C)N=C2C)cc([N+](=O)[O-])cc1[N+](=O)[O-]	66%
Cc1cc(/C=C2\C(=O)NC(=S)N(c3ccc(Cl)cc3)C2=O)c(C)n1-c1cc(C(=O)O)cc(C(=O)O)c1	88%
CC1=NN(c2ccc(Cl)c(C(=O)O)c2)C(=O)/C1=C\c1ccc(-c2ccccc2C(=O)O)o1	48%
COc1cc(/C=C2\C(=O)NC(=O)N(c3ccc(C)cc3)C2=O)cc([N+](=O)[O-])c1O	72%
O=C(CN1C(=O)S/C(=C/c2ccc(Cl)cc2)C1=O)Nc1cc([N+](=O)[O-])ccc1O	72%
COc1cc(/C=C2\C(=O)N(c3ccc(Cl)c(C(=O)O)c3)N=C2C)cc([N+](=O)[O-])c1O	54%
NS(=O)(=O)c1ccc(-c2ccc(/C=C3\C(=O)N(c4cccc(S(N)(=O)=O)c4)N=C3C(F)(F)F)o2)cc1	66%
O=C1N/C(=N/c2ccccc2)S/C1=C/c1cc(Br)cc(Cl)c1O	71%

Tested on: not listed separately
Assay: Inhibition of candida albicans beta-(1,3)-glucan synthase assessed as decrease in transfer of radiolabelled glucose from UDP-[3H]-glucose onto acceptor
Details: not given

Structure (SMILES)	IC50
CC[C@H](C)C[C@H](C)CCCCCCCCC(=O)N[C@H]1C[C@@H](O)[C@@H](OCCN)NC(=O)[C@@H]2[C@@H](O)CCN2C(=O)[C@H]([C@H](O)CCN)NC(=O)[C@H]([C@H](O)[C@@H](O)c2ccc(O)cc2)NC(=O)[C@@H]2C[C@@H](O)CN2C(=O)[C@H]([C@@H](C)O)NC1=O	0.001 µM
CC[C@H](C)C[C@H](C)CCCCCCCCC(=O)N[C@H]1C[C@@H](O)[C@@H](O)NC(=O)[C@@H]2[C@@H](O)CCN2C(=O)[C@H]([C@H](O)CC(N)=O)NC(=O)[C@H]([C@H](O)[C@@H](O)c2ccc(O)cc2)NC(=O)[C@@H]2C[C@@H](O)CN2C(=O)[C@H]([C@@H](C)O)NC1=O ({Tetradecanoyl(10R,12S-Me2)}-[Orn(4R-OH,5R-OH)]T[Hyp][hTyr(3S-OH,4S-OH)][Gln(3R-OH)][Pro(3S-OH)]; lactam 1-C)	0.07 µM

Tested on: Streptococcus mutans
Assay: Inhibition of Streptococcus mutans sucrose-6-glucosyltransferase at 50 uM
Details: not given

Structure (SMILES)	inhibition
CCCCCCCC/C(I)=C(/I)CCCCCCCC(=O)OCC(COC(=O)CCCCCCC/C(I)=C(/I)CCCCCCCC)OC(=O)CCCCCCC/C(I)=C(/I)CCCCCCCC	26.3%
CCCCCCCC/C=C\CCCCCCCC(=O)O	42.4%
CCCCCCCC/C=C\CCCCCCCC(=O)OC	16.8%
